US20240317777A1, “NOVEL MACROCYCLIC AMINOPYRAZOLE COMPOUNDS AS CDK2 INHIBITORS” (Accutar Biotechnology Inc., priority 2023, published 2024)
Where two headings read alike, the source gives them in different places.

Tests used:
[1] = the molecule shown is the open-chain precursor, other bond
[2] = the molecule shown is the open-chain precursor, other bond, 18-membered ring, DIEA, THF
[3] = other bond, DIEA
[4] = the molecule shown is the open-chain precursor; other bond; 18-membered ring; DIEA; THF; 1.83 mM; 80.0 °C

CC(C)(C)n1nc([C@H]2CC[C@@H](OC(=O)Oc3ccc([N+](=O)[O-])cc3)C2)cc1Nc1cc(CCCCCN)nc(C(F)F)c1
ring closure, isolated yield ([1]; 18-membered ring, DIEA, THF, 3.27 mM, 30.0 °C): 44.1%

CC(C)(C)n1nc([C@H]2CC[C@@H](OC(=O)Oc3ccc([N+](=O)[O-])cc3)C2)cc1Nc1cc(OCCCCN)nc(C(F)F)c1
ring closure, isolated yield ([1]; 18-membered ring, DIEA, THF, 1.11 mM, 25.0 °C): 65%

CC(C)(C)n1nc([C@H]2CC[C@@H](OC(=O)Oc3ccc([N+](=O)[O-])cc3)C2)cc1Nc1ccnc(OCC2CC(N)C2)c1 (stereo partly drawn)
ring closure, crude yield ([2]; 1.21 mM, 70.0 °C): 96.7%

CC(C)(C)n1nc([C@H]2CC[C@@H](OC(=O)Oc3ccc([N+](=O)[O-])cc3)C2)cc1Nc1cncc(OCC2CC(N)C2)n1 (stereo partly drawn)
ring closure, isolated yield ([1]; 18-membered ring, DIEA, DMSO, 2.3 mM, 100.0 °C): 38%

CC(C)(C)n1nc([C@H]2CC[C@@H](OC(=O)Oc3ccc([N+](=O)[O-])cc3)C2)cc1Nc1cncc(OCCCCN)c1
ring closure, isolated yield ([1]; 18-membered ring, DIEA, THF, 2.01 mM, 25.0 °C): 49.3%

CC(C)(C)n1nc([C@H]2C[C@@H](F)[C@@H](OC(=O)Oc3ccc([N+](=O)[O-])cc3)C2)cc1Nc1ccnc(OCC2CC(N)C2)c1 (stereo partly drawn)
ring closure, isolated yield ([1]; 18-membered ring, DIEA, THF, 1.7 mM, 60.0 °C): 37%

CC(C)(N)CCCOc1cc(Nc2cc([C@H]3CC[C@@H](OC(=O)Oc4ccc([N+](=O)[O-])cc4)C3)nn2C(C)(C)C)ccn1
ring closure, isolated yield ([1]; 18-membered ring, DIEA/DMAP, THF, 1.81 mM, 50.0 °C): 88.8%

CC(CC12CC(N)(C1)C2)Oc1cc(Nc2cc([C@H]3CC[C@@H](OC(=O)Oc4ccc([N+](=O)[O-])cc4)C3)nn2C(C)(C)C)cc(C(F)F)n1 (stereo partly drawn)
ring closure, isolated yield ([1]; 19-membered ring, DIEA, THF, 9.15 mM, 80.0 °C): 84.7%

CC(N)CCCOc1cc(Nc2cc([C@H]3CC[C@@H](OC(=O)Oc4ccc([N+](=O)[O-])cc4)C3)nn2C(C)(C)C)ccn1 (stereo partly drawn)
ring closure, isolated yield ([1]; 18-membered ring, DIEA, THF, 2.06 mM, 30.0 °C): 98.5%

CC(OCCCN)c1cc(Nc2cc([C@H]3CC[C@@H](OC(=O)Oc4ccc([N+](=O)[O-])cc4)C3)nn2C(C)(C)C)ccn1 (stereo partly drawn)
ring closure, crude yield ([2]; 6.34 mM, 100.0 °C): 87.5%

C[C@@H](N)CC/C=C/c1cc(Nc2cc([C@H]3CC[C@@H](OC(=O)Oc4ccc([N+](=O)[O-])cc4)C3)nn2C(C)(C)C)ccn1
ring closure, isolated yield ([1]; 18-membered ring, DIEA, THF, 1.46 mM, 70.0 °C): 98.6%

C[C@@H](N)CCCCc1cc(Nc2cc([C@H]3CC[C@@H](OC(=O)Oc4ccc([N+](=O)[O-])cc4)C3)nn2C(C)(C)C)ccn1
ring closure, isolated yield ([1]; 18-membered ring, DIEA, THF, 1.42 mM, 100.0 °C): 99.5%

C[C@@H]1NC(=O)O[C@@H]2CC[C@@H](C2)c2cc(n(C(C)(C)C)n2)Nc2ccnc(c2)OCCC1(F)F
ring closure, yield of all isomers ([3]; from C[C@H](N)C(F)(F)CCOc1cc(Nc2cc([C@H]3CC[C@@H](OC(=O)Oc4ccc([N+](=O)[O-])cc4)C3)nn2C(C)(C)C)ccn1, DMSO, 1.15 mM, 100.0 °C, 16.0 h): 87.3%

C[C@@H]1NC(=O)O[C@@H]2CC[C@@H](C2)c2cc(n(C(C)(C)C)n2)Nc2ccnc(c2)OCCC1F (stereo partly drawn)
ring closure, yield of all isomers ([3]; from C[C@H](N)C(F)CCOc1cc(Nc2cc([C@H]3CC[C@@H](OC(=O)Oc4ccc([N+](=O)[O-])cc4)C3)nn2C(C)(C)C)ccn1, DMSO, 1.71 mM, 100.0 °C, 2.0 h): 97%

C[C@@H]1NC(=O)O[C@H]2C[C@H](C[C@H]2F)c2cc(n(C(C)(C)C)n2)Nc2ccnc(c2)OCCC1(F)F
ring closure, yield of all isomers ([3]; from C[C@H](N)C(F)(F)CCOc1cc(Nc2cc([C@H]3C[C@@H](F)[C@@H](OC(=O)Oc4ccc([N+](=O)[O-])cc4)C3)nn2C(C)(C)C)ccn1, DMSO, 3.13 mM, 100.0 °C, 12.0 h): 88%

C[C@H](N)C(F)(F)CCOc1cc(Nc2cc([C@H]3C[C@@H](F)[C@@H](OC(=O)Oc4ccc([N+](=O)[O-])cc4)C3)nn2C(C)(C)C)ccn1
ring closure, isolated yield ([1]; 18-membered ring, DIEA, DMSO, 3.13 mM, 100.0 °C): 88%

C[C@H](N)C(F)CCOc1cc(Nc2cc([C@H]3CC[C@@H](OC(=O)Oc4ccc([N+](=O)[O-])cc4)C3)nn2C(C)(C)C)ccn1 (stereo partly drawn)
ring closure, isolated yield ([1]; 18-membered ring, DIEA, DMSO, 1.71 mM, 100.0 °C): 97%

C[C@H](N)CC(F)(F)COc1cc(Nc2cc([C@H]3CC[C@@H](OC(=O)Oc4ccc([N+](=O)[O-])cc4)C3)nn2C(C)(C)C)ccn1
ring closure, yield after HPLC [4]: 66.2%

C[C@H](N)CCCCc1cc(Nc2cc([C@H]3CC[C@@H](OC(=O)Oc4ccc([N+](=O)[O-])cc4)C3)nn2C(C)(C)C)ccn1
ring closure, crude yield ([2]; 0.92 mM, 20.0 °C): 91.9%

C[C@H](N)CCCOc1cc(Nc2cc([C@H]3CC[C@@H](OC(=O)Oc4ccc([N+](=O)[O-])cc4)C3)nn2C(C)(C)C)c(F)cn1
ring closure, crude yield ([2]; 1.71 mM, 25.0 °C): 99.9%

C[C@H](N)CCCOc1cc(Nc2cc([C@H]3CC[C@@H](OC(=O)Oc4ccc([N+](=O)[O-])cc4)C3)nn2C(C)(C)C)cc(F)n1
ring closure, crude yield ([2]; 1.71 mM, 25.0 °C): 97.8%

C[C@H](N)CCCOc1cc(Nc2cc([C@H]3CC[C@@H](OC(=O)Oc4ccc([N+](=O)[O-])cc4)C3)nn2C(C)(C)C)ccn1
ring closure, isolated yield ([1]; 18-membered ring, DIEA, THF, 3.53 mM, 50.0 °C): 84.8%

C[C@H](N)CCCOc1nccc(Nc2cc([C@H]3CC[C@@H](OC(=O)Oc4ccc([N+](=O)[O-])cc4)C3)nn2C(C)(C)C)n1
ring closure, isolated yield ([1]; 18-membered ring, DIEA, DMSO, 1.79 mM, 80.0 °C): 93%

C[C@H](N)CCO[C@@H](C)c1cc(Nc2cc([C@H]3CC[C@@H](OC(=O)Oc4ccc([N+](=O)[O-])cc4)C3)nn2C(C)(C)C)ccn1
ring closure, crude yield ([2]; 0.55 mM, 25.0 °C): 86.5%

C[C@H]1CC(F)(F)COc2cc(ccn2)Nc2cc(nn2C(C)(C)C)[C@H]2CC[C@H](C2)OC(=O)N1
ring closure, yield of all isomers ([3]; from C[C@H](N)CC(F)(F)COc1cc(Nc2cc([C@H]3CC[C@@H](OC(=O)Oc4ccc([N+](=O)[O-])cc4)C3)nn2C(C)(C)C)ccn1, THF, 1.83 mM, 80.0 °C, 12.0 h): 66.2%

C[C@H]1CC/C=C/c2cc(ccn2)Nc2cc(nn2C(C)(C)C)[C@H]2CC[C@H](C2)OC(=O)N1
ring closure, yield of all isomers ([3]; from C[C@H](N)CC/C=C/c1cc(Nc2cc([C@H]3CC[C@@H](OC(=O)Oc4ccc([N+](=O)[O-])cc4)C3)nn2C(C)(C)C)ccn1, THF, 1.6 mM, 60.0 °C, 2.0 h): 93.9%

C[C@H]1CCCC(F)(F)c2cc(ccn2)Nc2cc(nn2C(C)(C)C)[C@H]2CC[C@H](C2)OC(=O)N1
ring closure, yield of all isomers ([3]; from C[C@H](N)CCCC(F)(F)c1cc(Nc2cc([C@H]3CC[C@@H](OC(=O)Oc4ccc([N+](=O)[O-])cc4)C3)nn2C(C)(C)C)ccn1, THF, 1.33 mM, 25.0 °C, 3.0 h): 99.3%

C[C@H]1CCCCc2cc(ccn2)Nc2cc(nn2C(C)(C)C)[C@H]2CC[C@H](C2)OC(=O)N1
ring closure, yield of all isomers ([3]; from C[C@H](N)CCCCc1cc(Nc2cc([C@H]3CC[C@@H](OC(=O)Oc4ccc([N+](=O)[O-])cc4)C3)nn2C(C)(C)C)ccn1, THF, 0.92 mM, 20.0 °C, 4.0 h): 91.9%

C[C@H]1CCCOc2cc(c(F)cn2)Nc2cc(nn2C(C)(C)C)[C@H]2CC[C@H](C2)OC(=O)N1
ring closure, yield of all isomers ([3]; from C[C@H](N)CCCOc1cc(Nc2cc([C@H]3CC[C@@H](OC(=O)Oc4ccc([N+](=O)[O-])cc4)C3)nn2C(C)(C)C)c(F)cn1, THF, 1.71 mM, 25.0 °C, 3.0 h): 99.9%

C[C@H]1CCCOc2cc(cc(F)n2)Nc2cc(nn2C(C)(C)C)[C@H]2CC[C@H](C2)OC(=O)N1
ring closure, yield of all isomers ([3]; from C[C@H](N)CCCOc1cc(Nc2cc([C@H]3CC[C@@H](OC(=O)Oc4ccc([N+](=O)[O-])cc4)C3)nn2C(C)(C)C)cc(F)n1, THF, 1.71 mM, 25.0 °C, 3.0 h): 97.8%

C[C@H]1CCCOc2cc(ccn2)Nc2cc(nn2C(C)(C)C)[C@H]2CC[C@H](C2)OC(=O)N1
ring closure, yield of all isomers ([3]; from C[C@H](N)CCCOc1cc(Nc2cc([C@H]3CC[C@@H](OC(=O)Oc4ccc([N+](=O)[O-])cc4)C3)nn2C(C)(C)C)ccn1, THF, 3.53 mM, 50.0 °C, 12.0 h): 84.8%

C[C@H]1CCCOc2nccc(n2)Nc2cc(nn2C(C)(C)C)[C@H]2CC[C@H](C2)OC(=O)N1
ring closure, yield of all isomers ([3]; from C[C@H](N)CCCOc1nccc(Nc2cc([C@H]3CC[C@@H](OC(=O)Oc4ccc([N+](=O)[O-])cc4)C3)nn2C(C)(C)C)n1, DMSO, 1.79 mM, 80.0 °C, 3.0 h): 93%

C[C@H]1CCO[C@H](C)c2cc(ccn2)Nc2cc(nn2C(C)(C)C)[C@H]2CC[C@H](C2)OC(=O)N1
ring closure, yield of all isomers ([3]; from C[C@H](N)CCO[C@H](C)c1cc(Nc2cc([C@H]3CC[C@@H](OC(=O)Oc4ccc([N+](=O)[O-])cc4)C3)nn2C(C)(C)C)ccn1, THF, 0.86 mM, 25.0 °C, 12.0 h): 92.1%
